# Data taken from the supplement of paper PMC10307832.
# Key:
# Test in all cases: relative viability (nuclei count vs DMSO), 5 days (fraction); higher = more cells survive
# NCI-H1975 = test system: NCI-H1975
# In short: (§1)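 Values are medians from duplicate plates. Each reflects relative viability, defined as the nuclei count of treated wells over that of vehicle wells. Lung cancer cell lines in 1536-well plates were pin-tool dosed one day after seeding with one drug alone or with a fixed anchor-drug dose plus five library-drug doses (not always all listed) in √10 steps, then fixed, stained and imaged at 4× after 5 days.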
# LOU-NH91 = test system: LOU-NH91
# In short: as §1
# NCI-H358 = test system: NCI-H358
# In short: as §1
# NCI-H2342 = test system: NCI-H2342
# In short: as §1
# LU99A = test system: LU99A
# In short: as §1
# EKVX = test system: EKVX
# In short: as §1
# BEN = test system: BEN
# In short: as §1
# HOP-62 = test system: HOP-62
# In short: as §1
# PC-3 [JPC-3] = test system: PC-3 [JPC-3]
# In short: as §1
# NCI-H1437 = test system: NCI-H1437
# In short: as §1
# SW 1573 = test system: SW 1573
# In short: as §1
# 201T = test system: 201T
# In short: as §1
# NCI-H2087 = test system: NCI-H2087
# In short: as §1
# LCLC-97TM1 = test system: LCLC-97TM1
# In short: as §1
# HCC-44 = test system: HCC-44
# In short: as §1
# EPLC-272H = test system: EPLC-272H
# In short: as §1
# COR-L 105 = test system: COR-L 105
# In short: as §1
# NCI-H2085 = test system: NCI-H2085
# In short: as §1
# NCI-H2126 = test system: NCI-H2126
# In short: as §1
# NCI-H1666 = test system: NCI-H1666
# In short: as §1
# NCI-H647 = test system: NCI-H647
# In short: as §1
# NCI-H1395 = test system: NCI-H1395
# In short: as §1
# HCC-827 = test system: HCC-827
# In short: as §1
# H3255 = test system: H3255
# In short: as §1
compound,measurement,setting,value
COc1cc(N2CCC(C(N)=O)CC2)ccc1Nc1nc(N)c(Cl)c(Nc2ccccc2S(=O)(=O)C(C)C)n1 [HG-5-88-01] + Nc1ncn([C@H]2C[C@H](O)[C@@H](CO)O2)c(=O)n1 [Decitabine] (partner 2 µM),relative viability,NCI-H1975; first compound 0.04 µM,0.409
same,relative viability,NCI-H1975; first compound 0.1265 µM,0.474
same,relative viability,NCI-H1975; first compound 0.4 µM,0.382
same,relative viability,NCI-H1975; first compound 1.265 µM,0.403
same,relative viability,NCI-H1975; first compound 4 µM,0.273
same,relative viability,LOU-NH91; first compound 0.04 µM,0.796
same,relative viability,LOU-NH91; first compound 0.1265 µM,0.844
same,relative viability,LOU-NH91; first compound 0.4 µM,0.725
same,relative viability,LOU-NH91; first compound 1.265 µM,0.587
same,relative viability,LOU-NH91; first compound 4 µM,0.6
same,relative viability,NCI-H358; first compound 0.04 µM,0.208
same,relative viability,NCI-H358; first compound 0.1265 µM,0.229
same,relative viability,NCI-H358; first compound 0.4 µM,0.285
same,relative viability,NCI-H358; first compound 1.265 µM,0.192
same,relative viability,NCI-H358; first compound 4 µM,0.125
same,relative viability,NCI-H2342; first compound 0.04 µM,0.751
same,relative viability,NCI-H2342; first compound 0.1265 µM,0.808
same,relative viability,NCI-H2342; first compound 0.4 µM,0.808
same,relative viability,NCI-H2342; first compound 4 µM,0.801
same,relative viability,LU99A; first compound 0.04 µM,0.896
same,relative viability,LU99A; first compound 0.1265 µM,0.929
same,relative viability,LU99A; first compound 0.4 µM,0.915
same,relative viability,LU99A; first compound 1.265 µM,0.93
same,relative viability,LU99A; first compound 4 µM,0.839
same,relative viability,EKVX; first compound 0.04 µM,0.392
same,relative viability,EKVX; first compound 0.1265 µM,0.332
same,relative viability,EKVX; first compound 0.4 µM,0.389
same,relative viability,EKVX; first compound 4 µM,0.345
same,relative viability,BEN; first compound 0.04 µM,0.532
same,relative viability,BEN; first compound 0.1265 µM,0.738
same,relative viability,BEN; first compound 0.4 µM,0.77
same,relative viability,BEN; first compound 1.265 µM,0.725
same,relative viability,BEN; first compound 4 µM,0.545
same,relative viability,HOP-62; first compound 0.04 µM,0.209
same,relative viability,HOP-62; first compound 0.1265 µM,0.226
same,relative viability,HOP-62; first compound 0.4 µM,0.232
same,relative viability,HOP-62; first compound 1.265 µM,0.252
same,relative viability,HOP-62; first compound 4 µM,0.28
same,relative viability,PC-3 [JPC-3]; first compound 0.04 µM,0.762
same,relative viability,PC-3 [JPC-3]; first compound 0.1265 µM,0.826
same,relative viability,PC-3 [JPC-3]; first compound 0.4 µM,0.872
same,relative viability,PC-3 [JPC-3]; first compound 1.265 µM,0.546
same,relative viability,PC-3 [JPC-3]; first compound 4 µM,0.423
same,relative viability,NCI-H1437; first compound 0.04 µM,0.529
same,relative viability,NCI-H1437; first compound 0.1265 µM,0.565
same,relative viability,NCI-H1437; first compound 0.4 µM,0.465
same,relative viability,NCI-H1437; first compound 1.265 µM,0.579
same,relative viability,NCI-H1437; first compound 4 µM,0.821
same,relative viability,SW 1573; first compound 0.04 µM,0.454
same,relative viability,SW 1573; first compound 0.1265 µM,0.593
same,relative viability,SW 1573; first compound 0.4 µM,0.423
same,relative viability,SW 1573; first compound 1.265 µM,0.428
same,relative viability,SW 1573; first compound 4 µM,0.458
same,relative viability,201T; first compound 0.04 µM,0.856
same,relative viability,201T; first compound 0.1265 µM,0.864
same,relative viability,201T; first compound 1.265 µM,0.852
same,relative viability,201T; first compound 4 µM,0.891
same,relative viability,NCI-H2087; first compound 0.04 µM,0.315
same,relative viability,NCI-H2087; first compound 0.1265 µM,0.365
same,relative viability,NCI-H2087; first compound 0.4 µM,0.325
same,relative viability,NCI-H2087; first compound 1.265 µM,0.246
same,relative viability,NCI-H2087; first compound 4 µM,0.242
same,relative viability,LCLC-97TM1; first compound 0.04 µM,0.21
same,relative viability,LCLC-97TM1; first compound 0.1265 µM,0.219
same,relative viability,LCLC-97TM1; first compound 0.4 µM,0.209
same,relative viability,LCLC-97TM1; first compound 1.265 µM,0.229
same,relative viability,LCLC-97TM1; first compound 4 µM,0.128
same,relative viability,HCC-44; first compound 0.04 µM,0.936
same,relative viability,HCC-44; first compound 0.1265 µM,0.996
same,relative viability,HCC-44; first compound 0.4 µM,0.913
same,relative viability,HCC-44; first compound 1.265 µM,0.996
same,relative viability,HCC-44; first compound 4 µM,0.817
same,relative viability,EPLC-272H; first compound 0.04 µM,0.32
same,relative viability,EPLC-272H; first compound 0.1265 µM,0.371
same,relative viability,EPLC-272H; first compound 0.4 µM,0.47
same,relative viability,EPLC-272H; first compound 1.265 µM,0.266
same,relative viability,EPLC-272H; first compound 4 µM,0.117
same,relative viability,COR-L 105; first compound 0.04 µM,0.569
same,relative viability,COR-L 105; first compound 0.1265 µM,0.706
same,relative viability,COR-L 105; first compound 0.4 µM,0.628
same,relative viability,COR-L 105; first compound 1.265 µM,0.582
same,relative viability,COR-L 105; first compound 4 µM,0.577
same,relative viability,NCI-H2085; first compound 0.04 µM,0.6
same,relative viability,NCI-H2085; first compound 0.1265 µM,0.625
same,relative viability,NCI-H2085; first compound 0.4 µM,0.582
same,relative viability,NCI-H2085; first compound 1.265 µM,0.544
same,relative viability,NCI-H2085; first compound 4 µM,0.607
same,relative viability,NCI-H2126; first compound 0.04 µM,0.603
same,relative viability,NCI-H2126; first compound 0.1265 µM,0.586
same,relative viability,NCI-H2126; first compound 0.4 µM,0.568
same,relative viability,NCI-H2126; first compound 1.265 µM,0.6
same,relative viability,NCI-H2126; first compound 4 µM,0.556
same,relative viability,NCI-H1666; first compound 0.04 µM,0.66
same,relative viability,NCI-H1666; first compound 0.1265 µM,0.743
same,relative viability,NCI-H1666; first compound 0.4 µM,0.779
same,relative viability,NCI-H1666; first compound 1.265 µM,0.622
same,relative viability,NCI-H1666; first compound 4 µM,0.566
same,relative viability,NCI-H647; first compound 0.04 µM,0.375
same,relative viability,NCI-H647; first compound 0.1265 µM,0.494
same,relative viability,NCI-H647; first compound 1.265 µM,0.529
same,relative viability,NCI-H647; first compound 4 µM,0.679
same,relative viability,NCI-H1395; first compound 0.04 µM,0.765
same,relative viability,NCI-H1395; first compound 0.1265 µM,0.712
same,relative viability,NCI-H1395; first compound 0.4 µM,0.789
same,relative viability,NCI-H1395; first compound 1.265 µM,0.682
same,relative viability,NCI-H1395; first compound 4 µM,0.751
same,relative viability,HCC-827; first compound 0.04 µM,0.292
same,relative viability,HCC-827; first compound 0.1265 µM,0.304
same,relative viability,HCC-827; first compound 0.4 µM,0.354
same,relative viability,HCC-827; first compound 1.265 µM,0.19
same,relative viability,HCC-827; first compound 4 µM,0.209
same,relative viability,H3255; first compound 0.04 µM,0.589
same,relative viability,H3255; first compound 0.1265 µM,0.629
same,relative viability,H3255; first compound 0.4 µM,0.568
same,relative viability,H3255; first compound 4 µM,0.574
